Where “and” joins values, the source holds several entries; their conditions need not be identical. Equal values may be shown once. Entries after “also recorded” stand apart in the source; their conditions may differ.

In series [1] the test system is P. cynomolgi developing EEFs (liver schizonts) in primary rhesus hepatocytes. Also on record: method as in PMID 24366744. To be noted: P. cynomolgi in vitro liver-stage assay; read-out: IC50 against developing EEFs; cited from earlier work.
Series [2] can be described thus: Clinical chemistry, hematology, weight and clinical observation of treated monkeys. Format: in vivo, rhesus macaques (Macaca mulatta). On the procedure:
(§1) Monkeys were treated according to the schedule shown in Table 1 (stratification of treatment groups is given in the supplemental material). During treatment, monkeys were weighed daily and received the compound via gavage, followed by gastric feeding (weight change during treatment is shown in Table S6 in the supplemental material). Monkeys in the prophylaxis groups (groups 691-proph and 599-proph) were treated ∼20 min after the i.v. sporozoite injection. The other monkeys were treated when all the monkeys in the experiment (except those in the prophylaxis group) were blood-stage patent (at day 11 p.i.). To kill the blood-stage parasites, all monkeys received a 5-day treatment of 7.5 mg/kg of body weight of chloroquine (CQ) (intramuscular [i.m.] injection), during compound dosing. KDU691 was formulated in 0.5% methylcellulose and 0.5% Tween 80 in water. LMV599 was formulated as a solid dispersion in a solution containing 5.6% (wt/wt) Tween 80–44.4% hydroxypropyl methylcellulose (HPMC) E3–38.9% Soluplus–11.1% vitamin E D-alphatocopheryl polyethylene glycol 1000 succinate (TPGS).
Blood samples were collected for clinical evaluation and pharmacokinetic (PK) analysis (see Table S2 in the supplemental material).
When the first relapse was observed, monkeys of the KDU691 experiment were radically cured with primaquine (PQ)/CQ (oral administration of 1.8 mg/kg PQ for 14 days together with i.m. administration of 7.5 mg/kg CQ for the first five days of PQ treatment) to cure both blood stage and liver stage parasites, […]
The monkeys of the LMV599/PQ experiment were cured with a five day CQ treatment (7.5 mg/kg, i.m. administration) at the first relapse and were monitored until the second relapse after which they were cured with CQ (7.5 mg/kg, intramuscular (i.m.) for five days) plus PQ (1.8 mg/kg for 14 days).
Table S2: PK and clinical blood sampling schedule in monkeys.
Groups are named 691 for KDU691 and 599 for LMV599 treatment groups, followed by -C for control group (no compound), -proph for prophylactic treatment (treated immediately after infection), and -RC for radical cure treatment (treated when blood stage positive). […]
the face and chest areas were very yellow. Therefore the 691-RC group (treated from d11 to d15 pi) was monitored by daily clinical chemistry analysis during dosing to be compared with untreated 691-C. […]
sampling of the single dose prophylaxis group at day 0, 1, 7 and 100. The lack of aberrant clinical […]
as radical cure compound, during which also clinical sampling was performed daily. a: only clinical chemistry samples were taken. *: t = 24 sample was taken only on the 1st day of dosing.
Group name Clin. chem PK sampling PK time points
Hematology (h post dosing)
691-proph 1st and 5th day of dosing t = 0, 1, 4, 6 and 24*
691-RC Dailya 1st and 5th day of dosing t = 0, 1, 4, 6 and 24* […]
599-RC Daily 1st and 4th day of dosing t = 0, 1, 2, 4 and 24
Clinical chemistry and hematology
For the clinical analysis serum from 1 mL of clotted blood was analysed using the Cobas Integra 400 plus fully automated chemistry analyser. The following clinical parameters were determined: Alkaline phosphatase; Alanine Aminotransferase; Albumin: Aspartate aminotransfeasr; Bilirubin; Calcium; Cholesterol; Creatine kinase; Creatinine; C-reactive protein: Iron; Phosphate; Gamma-glutamyl transpeptidase; Glucose; Hemoglobin; Potassium; Lactate dehydrogenase; Sodium; Total protein; Urea Haematological parameters were determined from 1 mL EDTA-blood with a Sysmex XT-2000iV automated system. The following hematological parameters were determined: Basophilic granulocytes; Eosinophilic granulocytes; Erythrocytes; Hematocrit; Leucocytes; Leucocyte differentiation; Lymphocytes; Mean corpusculair hemoglobin; Mean corpusculair hemoglobin concentration; Mean corpusculair volume; Neutrophilic granulocytes; Red cell distribution width; Thrombocytes […]
Liver tissue samples were excised, dipped in PBS, gently blotted with absorbent paper, dried, weighed and stored at -20 °C until further analysis. […]

In series [3] the test system is P. cynomolgi hypnozoites in primary rhesus hepatocytes. The arrangement: method as in PMID 24366744. To be noted: P. cynomolgi in vitro liver-stage assay; read-out: IC50 against hypnozoites; cited from earlier work.
In series [4] the test system is P. cynomolgi sporozoite-infected rhesus macaques (hypnozoites, relapse). Kind of series: Radical cure in P. cynomolgi sporozoite-infected rhesus macaques. Format: in vivo, Plasmodium cynomolgi. Conditions: group PQ-RC. On the procedure: Sporozoites were harvested from P. cynomolgi-infected mosquitoes, washed with phosphate-buffered saline (PBS), and diluted to 100,000 sporozoites (spz)/ml in PBS. One-milliliter aliquots of sporozoites were prepared and injected into monkeys via intravenous (i.v.) injection.
as §1
Parasitemia was closely monitored by thin-film analysis. Animals were trained to present for thigh pricks, which was followed by a reward. Thin-film slides were stained with 20% Giemsa stain, and at least 50 fields (±20,000 erythrocytes [RBCs]) were analyzed with a bright-field microscope (×1,200 magnification). As soon as all monkeys other than the prophylactic treatment groups were blood-stage positive, treatment was started as indicated above (Table 1). After the last day of compound dosing, the absence of blood-stage parasites was confirmed by thin smears. From day 23 p.i., monkeys were monitored daily for relapses. The KDU691 radical-cure (group 691-RC) treatment and control groups were monitored until the first relapse. The LMV599 control (group 599-C), radical-cure (group 599-RC), and PQ radical-cure (group PQ-RC) treatment groups were monitored until the second relapse or until day 100 p.i. (whichever came first). At the end of the study, monkeys that had relapsed received a 14-day primaquine treatment, with a final check 2 weeks after the last primaquine dose.
P. cynomolgi sporozoite production
A monkey was infected with […] P. cynomolgi M strain blood stage parasites, thawed from a first passage stock (i.e. blood stage parasites from a monkey infected with P. cynomolgi M strain sporozoites). For each batch of sporozoites needed, a single monkey was infected with P. cynomolgi blood stage parasites.
At day 11 and 12 post infection 9 mL infected blood was collected into a Lithium-heparinised tube. The blood was kept at 38°C and fed approximately 500 three to five days old female Anopheles stephensi mosquitoes Sind-Kasur strain Nijmegen (Nijmegen University Medical Centre St Radboud, Department of Medical Microbiology) using a glass feeder system as described by Ponnudurai et al.. After the second bleed, the monkey was cured by three daily intramuscular injections of 7.5 mg/kg chloroquine, monitored for parasite clearance 24 days after chloroquine treatment and returned to colony.
Mosquitoes were kept in climate chambers at 25 °C and 80% humidity and were fed 5% D -glucose on cotton pads daily. Seven days after feeding on the infected rhesus blood, oocyst numbers were determined in midguts of ten individuals, using 1% mercurochrome stain. Mosquitoes were given a second (uninfected) blood meal immediately afterwards to promote sporozoite maturation and invasion of the salivary glands. Sporozoites were isolated from the P. cynomolgi infected mosquitoes around day16 after the infected blood meal.
In vivo monkey infection and treatment procedures […]

Setting [5] is: group PQ-RC, 1.8 mg/kg, % of weight at d0.

As for `COc1cc(NC(C)CCCN)c2ncccc2c1` (stereo not drawn) [PQ, primaquine], in series [1], the IC50 (in general, the concentration that gives 50% inhibition) was 370 nM. In series [2] (setting [5]), the “Weight change d1” value is listed as -0.8%, the “Weight change d2” value was -1.2%, the “Weight change d3” value was -2.6% and the “Weight change d4” value is given as -2.9%. In series [2] (primaquine treatment, 1.8 mg/kg for 5 days, control 2.7%), this compound came in with a mean weight loss of 2.9%. In series [3], the IC50 was 840 nM. The “Day p.i. to first relapse” value in series [4] (1.8 mg/kg oral for 5 days from day 11 p.i. plus CQ, individual monkeys, ND = not detected up to day 100 p.i., 1.8 mg/kg) was 47 day p.i. and 68 day p.i. Besides, the animals radically cured in series [4] (1.8 mg/kg oral for 5 days, monitored up to 100 days p.i., 1.8 mg/kg) is reported as “two out of four; also recorded: two were completely cured”. Besides, in series [4] (1.8 mg/kg oral for 5 days, individual monkeys, ND = not detected up to day 100 p.i.), the “Day p.i. to second relapse” value came out at 100 day p.i. In addition, the “day p.i. to first relapse, mean ± SD of the relapsing animals” value in series [4] (1.8 mg/kg oral for 5 days, only two of the four animals relapsed, delay P = 0.000237) stood at 57.5 ± 14.8 day p.i. Further, the “Day p.i. to primary parasitemia” value in series [4] (individual monkeys, baseline, before dosing started) was 9 day p.i. and 10 day p.i. and 11 day p.i.

Source of the values: article PMC4862498, “PI4 Kinase Is a Prophylactic but Not Radical Curative Target in Plasmodium vivax-Type Malaria Parasites” (Antimicrobial Agents and Chemotherapy, 2016).
